The values below come from US11851431B2, “Tricyclic Janus kinase 1 inhibitors, and compositions and methods thereof” (LYNK PHARMACEUTICALS CO. LTD., priority 2018, dated 2023).

Where two headings read alike, the source gives them in different places.

The target in one data set is T1, JAK1 (Homo sapiens, UniProt P23458).
T1 construct: purchased Carna Biosciences
Description: JAK biochemical microfluidic assay (Caliper EZ Reader), JAK1. The following applies: 1 mM ATP; head prints (5 nM). The method, then:
(§1) JAK activity was determined in the reaction buffer 50 mM HEPES, 0.01% Brij35, 10 mM MgCl2, 2 mM DTT by a microfluidic assay. The phosphorylation of a FAM labeled peptide substrate was monitored in the Caliper EZ Reader II (Perkin Elmer). The assay condition for each batch of enzyme (Carna Biosciences) was optimized to obtain 10% conversion rate of peptide substrate.
(§2) The test compounds were dissolved in DMSO to a stock concentration of 10 mM. Three-fold serially diluted compounds with top concentration of 5 μM were pre-incubated with JAK1, JAK2 or TYK2 for 10 min at ambient temperature. The final DMSO concentration of assay mixture was 1%. […] The reaction was stopped by adding 50 mM EDTA.
(§3) The percent inhibition was calculated by the following formula. % Inhibition=(Conversionmax−Conversionsample)/(Conversionmax−Conversionmin)*100 Conversionmax means the conversion rate in the positive well without addition of compound • […] means the conversion rate in the well without addition of enzyme • Conversionsample means the conversion rate of test compounds
(§4) The dose-response (percent inhibition) curve was plotted and IC50 values were determined by GraphPad software.

In another data set the target is T2, JAK2 (Homo sapiens, UniProt O60674).
T2 construct: purchased Carna Biosciences
T2 sequence (O60674 whole entry): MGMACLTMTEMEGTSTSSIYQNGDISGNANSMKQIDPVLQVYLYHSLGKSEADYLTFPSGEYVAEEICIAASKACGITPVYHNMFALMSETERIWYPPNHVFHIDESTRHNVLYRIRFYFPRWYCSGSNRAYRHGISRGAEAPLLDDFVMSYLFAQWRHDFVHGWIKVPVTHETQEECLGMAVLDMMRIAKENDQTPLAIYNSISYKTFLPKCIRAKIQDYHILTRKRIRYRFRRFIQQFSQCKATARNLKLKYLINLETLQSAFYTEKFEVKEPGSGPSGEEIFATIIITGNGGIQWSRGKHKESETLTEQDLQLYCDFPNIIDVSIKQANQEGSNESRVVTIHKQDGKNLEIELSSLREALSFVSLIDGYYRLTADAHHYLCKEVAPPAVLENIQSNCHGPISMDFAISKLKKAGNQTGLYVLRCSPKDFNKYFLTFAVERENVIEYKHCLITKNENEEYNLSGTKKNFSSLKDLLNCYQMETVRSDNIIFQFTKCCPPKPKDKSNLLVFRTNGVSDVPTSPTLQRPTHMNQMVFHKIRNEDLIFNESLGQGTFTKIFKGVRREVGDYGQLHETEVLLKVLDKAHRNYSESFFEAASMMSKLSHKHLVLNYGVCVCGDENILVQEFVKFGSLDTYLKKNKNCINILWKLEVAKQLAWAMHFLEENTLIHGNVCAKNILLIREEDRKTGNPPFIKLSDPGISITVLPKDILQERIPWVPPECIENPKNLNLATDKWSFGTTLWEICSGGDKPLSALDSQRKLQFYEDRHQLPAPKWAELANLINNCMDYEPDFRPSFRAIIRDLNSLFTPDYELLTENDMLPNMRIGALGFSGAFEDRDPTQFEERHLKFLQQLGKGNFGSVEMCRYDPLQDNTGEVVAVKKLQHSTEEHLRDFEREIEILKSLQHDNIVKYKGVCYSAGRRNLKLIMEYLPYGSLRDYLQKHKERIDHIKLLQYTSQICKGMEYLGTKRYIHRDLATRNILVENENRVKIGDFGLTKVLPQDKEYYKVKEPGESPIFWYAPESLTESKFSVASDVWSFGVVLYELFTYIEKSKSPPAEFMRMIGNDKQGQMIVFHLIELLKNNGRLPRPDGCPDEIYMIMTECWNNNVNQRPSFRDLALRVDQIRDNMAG
Description: JAK biochemical microfluidic assay (Caliper EZ Reader), JAK2. Particulars: 1 mM ATP; head prints (0.25 nM). The method, then:
as §1, §2, §3, §4

Data set [1] can be described thus: Human liver microsome stability study. It counts as in vitro ADME. Particulars: liver microsomes, pH 7.4, 0.5 mg/mL microsomal protein, 1 μM test article; for microsomal CLint at 1 μM: read-out: HLM Clint; for half-life at 1 μM: read-out: HLM T½. The method, then:
Commercially available human liver microsome (vendor: Corning) were used for study the Phase I stability of test articles.
Microsomes were pre-incubated with test compound or control compounds for 10 min at 37° C. in 100 mM potassium phosphate buffer, pH 7.4, 3.3 mM MgCl2. The reaction was initiated by addition of 80 μL of the NADPH regenerating system to 320 μL of each incubation mixture per time point. The final incubation condition was composed of 0.5 mg/mL microsomal protein, 1 μM test article/positive control, 1.3 mM NADP, 3.3 mM glucose-6-phosphate, and 0.6 U/mL glucose-6-phosphate dehydrogenase. The 0-minute samples were prepared by addition of an 80 μL aliquot of each incubation mixture to 400 μL quench reagent to precipitate proteins. And then a 20 μL aliquot of the NADPH regenerating system was added. At 10, 30, and 90 minutes, the reaction will be stopped by the addition of cold acetonitrile solution containing tolbutamide and propanolol served as internal standard. The samples taken at all time points were centrifuged at 4000×g for 15 minutes. 80 μL of supernatant are taken into 96-well assay plates pre-added with 160 μL ultrapure water, and then analyzed by LC/MS/MS (Shimadzu LC30AD & API4000/API5000)).
Concentrations of test articles, control compounds in the samples were determined by using LC/MS/MS) method. Plotting of the chromatograms and peak area integrations are carried out by Analyst (AB Sciex).
In the determination of the in vitro elimination constant, ke, of the control compounds, the analyte/internal standard peak area ratios will be converted to percentage remaining (% Remaining) with the following equation:
The CLint of microsomes was calculated using the formula: CLint (mic)=0.693/T1/2/mg microsome protein per mL.
(In general: Liver microsomes are a subcellular fraction often used to study metabolism.)

A further data set has as its target T3, TYK2 (Homo sapiens, UniProt P29597).
T3 construct: purchased Carna Biosciences
Put plainly: JAK biochemical microfluidic assay (Caliper EZ Reader), TYK2. Particulars: 1 mM ATP; head prints (2.5 nM). The method, then:
as §1, §2, §3, §4

Data set [2] is described as follows: Rat pharmacokinetic study. Particulars: for half-life: read-out: t½ (converted); for Pharmacokinetic profile in rats: conclusion in words. It is filed as in vivo, Sprague-Dawley rats. The method, then: Pharmacokinetic profile of test articles were evaluated in fasted Sprague-Dawley rats. Typically, Rats were dosed with 1 mg/kg and 2 mg/kg by intravenous injection and oral gavage, respectively. After dosing, blood samples were collected at each time point. For IV injection group, time points were set at 5, 15, 30 min, and then 1, 2, 4, 8 and 24 hours after dosing. For oral gavage group, time points were set at 15, 30 min, and then 1, 2, 4, 8, and 24 hours. Blood was collected into appropriately labeled tubes containing K2EDTA as the anticoagulant. Plasma was obtained within 1 hours of blood collection by centrifugation at 8000×g and 4° C. for 6 minutes, and then stored at −20° C. until analyzed by LC/MS/MS for quantification.
PK parameter values, including, but not necessarily limited to, the maximum plasma concentrations (Cmax), the time to reach the maximum concentrations (Tmax), and the area under the plasma concentration vs. time curve (AUC) from time zero to 24-hour (AUC0-24h) were determined using WinNonlin program.

The test system of a further data set is BaF3-TEL-JAK1. Put plainly: Anti-proliferative assay, BaF3-TEL-JAK1 cells. The following applies: 72 h, Cell-Titer Glo. It counts as cell-based. The method, then: (§5) Dimerization domain of Tel protein fused with JAK kinase domain was permanently transduced into BaF3 cells, whose proliferation is dependent on JAK activity in the absence of IL-3 induction. These engineered BaF3-Tel-JAK cells were used to monitor JAK inhibitory activities of the compounds in the cellular.
(§6) BaF3-Tel-JAK cells were cultured in RPMI-1640 (Corning) containing 10% fetal bovine serum. Cells were seeded at 2000/well of white flat bottom 96-well plates. The well containing medium only was used as background control. After 24h growth, cells were treated with compounds. The test compounds were dissolved in DMSO to a stock concentration of 10 mM. 3-fold serially diluted compounds for 9 concentrations with top concentration of 10 μM was added into the each well. The final DMSO concentration was 0.2%. The cells continued to grow at 37° C. in 5% CO2 for 72 h after compound treatment. The viability was measured by cellular ATP determination using the Cell-Titer Glo luciferase reagent (Promega). The Luminescence value was recorded by a multi-label reader Envision (PerkinElmer). Values were transformed to percent inhibition using the following formula. % Inhibition=(Readoutmax−Readoutsample)/(Readoutmax−Readoutmin)*100
(§7) The well without compound but with equivalent DMSO was defined as Readout max
(§8) The well with only medium and equivalent DMSO was defined as Readout min
(§9) The dose-response (percent inhibition) curve was plotted and GI50 values (the concentration that causes 50% growth inhibition) were determined by GraphPad software.

For a further data set, the system named is BaF3-TEL-JAK2. Put plainly: Anti-proliferative assay, BaF3-TEL-JAK2 cells. Particulars: 72 h, Cell-Titer Glo. It counts as cell-based. The method, then: as §5, §6, §7, §8, §9
Setting [3] is: Sprague-Dawley, plasma, 1 mg/kg, Rat iv @1 mpk, 0.2 mg/mL in 4% DMSO + 15% Solutol HS 15 + 81% Saline.
[4] abbreviates: Sprague-Dawley, plasma, 1 mg/kg, Rat iv @1 mpk, 0.2 mg/mL in 5% DMSO + 15% Solutol HS 15 + 80% Saline.
Setting [5] is: Sprague-Dawley, plasma, 2 mg/kg, Rat po @2 mpk, 0.2 mg/mL in 5% DMSO + 15% Solutol HS 15 + 80% Saline.

T1 sequence (P23458 whole entry): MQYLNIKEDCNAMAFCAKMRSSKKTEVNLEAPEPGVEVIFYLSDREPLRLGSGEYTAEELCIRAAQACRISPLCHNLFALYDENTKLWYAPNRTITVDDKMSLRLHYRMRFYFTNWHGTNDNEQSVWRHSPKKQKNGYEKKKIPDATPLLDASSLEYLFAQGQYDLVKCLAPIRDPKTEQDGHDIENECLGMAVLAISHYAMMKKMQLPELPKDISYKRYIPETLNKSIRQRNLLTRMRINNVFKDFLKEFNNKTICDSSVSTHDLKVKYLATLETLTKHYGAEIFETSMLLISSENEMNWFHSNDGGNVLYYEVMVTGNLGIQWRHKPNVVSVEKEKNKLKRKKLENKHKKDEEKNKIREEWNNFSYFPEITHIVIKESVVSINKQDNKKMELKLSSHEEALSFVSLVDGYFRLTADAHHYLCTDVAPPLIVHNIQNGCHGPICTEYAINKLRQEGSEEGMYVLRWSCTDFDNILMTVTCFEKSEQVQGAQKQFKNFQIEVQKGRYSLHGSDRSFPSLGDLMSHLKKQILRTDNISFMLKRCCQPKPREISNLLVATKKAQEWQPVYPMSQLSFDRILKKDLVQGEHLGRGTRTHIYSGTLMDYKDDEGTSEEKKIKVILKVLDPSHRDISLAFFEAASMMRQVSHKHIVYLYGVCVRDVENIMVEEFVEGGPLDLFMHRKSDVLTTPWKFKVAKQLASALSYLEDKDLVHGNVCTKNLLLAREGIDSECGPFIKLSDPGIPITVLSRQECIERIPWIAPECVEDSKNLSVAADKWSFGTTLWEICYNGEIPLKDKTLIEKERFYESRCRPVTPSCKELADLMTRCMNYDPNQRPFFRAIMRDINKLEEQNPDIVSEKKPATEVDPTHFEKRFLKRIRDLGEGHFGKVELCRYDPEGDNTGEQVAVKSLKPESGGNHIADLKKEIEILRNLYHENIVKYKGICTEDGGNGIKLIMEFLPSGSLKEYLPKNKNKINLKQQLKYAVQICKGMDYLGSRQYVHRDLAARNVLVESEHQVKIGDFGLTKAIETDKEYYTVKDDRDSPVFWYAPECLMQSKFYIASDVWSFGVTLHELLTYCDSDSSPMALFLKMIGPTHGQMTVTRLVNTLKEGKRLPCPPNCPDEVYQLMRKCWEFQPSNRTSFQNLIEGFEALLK
T3 sequence (P29597 whole entry): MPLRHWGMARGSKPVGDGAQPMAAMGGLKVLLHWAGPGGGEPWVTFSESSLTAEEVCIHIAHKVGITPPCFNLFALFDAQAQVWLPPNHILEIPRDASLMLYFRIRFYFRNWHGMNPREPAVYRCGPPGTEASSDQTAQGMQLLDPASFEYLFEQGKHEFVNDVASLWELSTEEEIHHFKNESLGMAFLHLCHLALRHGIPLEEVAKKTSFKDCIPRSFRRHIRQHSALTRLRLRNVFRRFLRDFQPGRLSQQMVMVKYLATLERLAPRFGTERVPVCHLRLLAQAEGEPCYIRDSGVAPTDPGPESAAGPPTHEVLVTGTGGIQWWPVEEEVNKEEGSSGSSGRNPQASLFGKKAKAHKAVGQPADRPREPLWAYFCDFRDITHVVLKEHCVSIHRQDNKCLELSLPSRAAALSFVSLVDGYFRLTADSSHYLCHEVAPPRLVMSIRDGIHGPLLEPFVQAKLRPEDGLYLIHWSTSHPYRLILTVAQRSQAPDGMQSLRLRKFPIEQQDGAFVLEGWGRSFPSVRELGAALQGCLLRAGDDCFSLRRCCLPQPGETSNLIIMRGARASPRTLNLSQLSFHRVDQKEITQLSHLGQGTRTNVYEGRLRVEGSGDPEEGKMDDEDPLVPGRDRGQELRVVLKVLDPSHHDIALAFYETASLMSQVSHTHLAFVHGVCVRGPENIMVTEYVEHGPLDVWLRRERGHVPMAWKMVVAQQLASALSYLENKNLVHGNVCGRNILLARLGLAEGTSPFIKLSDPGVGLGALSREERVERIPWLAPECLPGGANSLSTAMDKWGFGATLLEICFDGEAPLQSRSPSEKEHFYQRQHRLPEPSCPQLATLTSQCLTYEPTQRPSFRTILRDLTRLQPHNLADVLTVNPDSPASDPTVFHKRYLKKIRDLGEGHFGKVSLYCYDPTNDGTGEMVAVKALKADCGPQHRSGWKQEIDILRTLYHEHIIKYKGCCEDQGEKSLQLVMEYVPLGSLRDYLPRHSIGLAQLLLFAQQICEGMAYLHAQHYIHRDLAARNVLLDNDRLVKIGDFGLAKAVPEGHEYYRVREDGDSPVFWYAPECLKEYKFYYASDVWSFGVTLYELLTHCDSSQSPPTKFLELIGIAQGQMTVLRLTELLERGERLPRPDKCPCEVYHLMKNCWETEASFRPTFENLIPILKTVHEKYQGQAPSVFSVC

As for `N#CC1CN(S(=O)(=O)NC23CC(n4cnc5cnc6[nH]ccc6c54)(C2)C3)C1` [Example 4, 3-Cyano-N-(3-(imidazo[4,5-d]pyrrolo[2,3-b]pyridin-1(6H)-yl)bicyclo[1.1.1]pentan-1-yl)azetidine-1-sulfonamide], the IC50 – broadly, the concentration that inhibits the measured activity by half – on JAK1 is 3.2 nM. In addition, at JAK2, the IC50 is 83.2 nM. In addition, in data set [1], the microsomal CLint at 1 μM is 2.11 µL/min/mg and the half-life at 1 μM is 10.9 h. At TYK2, this molecule registered an IC50 of 111 nM. Besides, in data set [2] (setting [3]), the AUC – broadly, the area under the concentration-time curve, a measure of exposure – turned out to be 402 ng·h/mL; the Vd – broadly, a proportionality between amount in the body and measured concentration, not a real space – is 0.93 L/kg; the clearance (as a rule, the volume of plasma or blood freed of the substance per unit of time) was found to be 41.9 mL/min/kg; the half-life is 0.26 h. Also, the “Pharmacokinetic profile in rats” value in data set [2] was “good Pharmacokinetic profile”.
At JAK1, `CCCS(=O)(=O)NC12CC(n3cnc4cnc5[nH]ccc5c43)(C1)C2` [Example 1, N-(3-(Imidazo[4,5-d]pyrrolo[2,3-b]pyridin-1(6H)-yl)bicyclo[1.1.1]pentan-1-yl)propane-1-sulfonamide] came in with an IC50 of 5.95 nM. The same molecule came in with an IC50 against JAK2 of 141 nM. In the data set with BaF3-TEL-JAK1, the GI50 (as a rule, the concentration giving 50% growth inhibition) turned out to be 19.6 nM. Moreover, in data set [1], the microsomal CLint at 1 μM worked out at 4.1 µL/min/mg and the half-life at 1 μM is 5.69 h. This molecule also displayed an IC50 on TYK2 of 119 nM. The GI50 in the data set on BaF3-TEL-JAK2 was determined as 354 nM. The F in data set [2] (Rat po @2 mpk, 0.2 mg/mL in 5% DMSO + 15% Solutol HS 15 + 80% Saline) worked out at 21.90%. In addition, in data set [2] (setting [4]), the AUC worked out at 458 ng·h/mL, the Vd is 1.42 L/kg, the clearance is 36.2 mL/min/kg and the half-life was 0.46 h. Moreover, in data set [2] (setting [5]), the AUC was 190 ng·h/mL; the Cmax (as a rule, the maximum level reached in the sampled fluid or tissue) was 92.8 ng/mL; the half-life is 2.06 h. For the same molecule, in data set [2], the “Pharmacokinetic profile in rats” value is given as “good Pharmacokinetic profile”.
With `N#CCCC(=O)NC12CC(n3cnc4cnc5[nH]ccc5c43)(C1)C2` [Example 14, 3-Cyano-N-(3-(imidazo[4,5-d]pyrrolo[2,3-b]pyridin-1(6H)-yl)bicyclo[1.1.1]pentan-1-yl)propanamide], the IC50 against JAK1 is 8.06 nM; against JAK2, 73.1 nM. In addition, in data set [1], the microsomal CLint at 1 μM stood at 0.77 µL/min/mg. The half-life at 1 μM in data set [1] was found to be 29.8 h.
On to `O=C(CC1CC1)NC12CC(n3cnc4cnc5[nH]ccc5c43)(C1)C2` [Example 13, 2-Cyclopropyl-N-(3-(imidazo[4,5-d]pyrrolo[2,3-b]pyridin-1(6H)-yl)bicyclo[1.1.1]pentan-1-yl)acetamide], for which the results for the IC50 against JAK1, against JAK2 and against TYK2 were 14.8 nM, 122 nM and 400 nM, respectively. Moreover, the GI50 turned out to be 50.1 nM in the data set on BaF3-TEL-JAK1 and 108 nM with BaF3-TEL-JAK2. The microsomal CLint at 1 μM in data set [1] worked out at 1.01 µL/min/mg. Also, the half-life at 1 μM in data set [1] stood at 23 h.
Take `O=C(NC12CC(n3cnc4cnc5[nH]ccc5c43)(C1)C2)C1CC(F)(F)C1` [Example 17, 3,3-Difluoro-N-(3-(imidazo[4,5-d]pyrrolo[2,3-b]pyridin-1(6H)-yl)bicyclo[1.1.1]pentan-1-yl)cyclobutanecarboxamide]: the figures for the IC50 against JAK1 and at JAK2 were 8.4 nM and 89.5 nM, respectively. The GI50 came to 48.2 nM in the data set on BaF3-TEL-JAK1 and 86.7 nM with BaF3-TEL-JAK2. Moreover, the microsomal CLint at 1 μM in data set [1] worked out at 1.04 µL/min/mg. The half-life at 1 μM in data set [1] is 22.3 h.
In the case of `O=S(=O)(NC12CC(n3cnc4cnc5[nH]ccc5c43)(C1)C2)N1CC(F)C1` [Example 22, 3-Fluoro-N-(3-(imidazo[4,5-d]pyrrolo[2,3-b]pyridin-1(6H)-yl)bicyclo[1.1.1]pentan-1-yl)azetidine-1-sulfonamide], the concentration for half-maximal inhibition (IC50) at JAK1 came out at 6.1 nM; against JAK2, 45.5 nM; against TYK2, 28.4 nM. Besides, the GI50 came to 54 nM in the data set with BaF3-TEL-JAK1 and 163 nM in the data set with BaF3-TEL-JAK2. Moreover, the microsomal CLint at 1 μM in data set [1] was 1.24 µL/min/mg. In addition, in data set [1], the half-life at 1 μM was 18.6 h.
As to `O=S(=O)(CCC(F)(F)F)NC12CC(n3cnc4cnc5[nH]ccc5c43)(C1)C2` [Example 32, 3,3,3-Trifluoro-N-(3-(imidazo[4,5-d]pyrrolo[2,3-b]pyridin-1(6H)-yl)bicyclo[1.1.1]pentan-1-yl)propane-1-sulfonamide], the IC50 turned out to be 6.7 nM against JAK1, 155 nM against JAK2 and 151 nM against TYK2. The values for the GI50 in the data set with BaF3-TEL-JAK1 and with BaF3-TEL-JAK2 were 33.6 nM and 122 nM, respectively. In addition, in data set [1], the microsomal CLint at 1 μM was found to be 2.72 µL/min/mg. The half-life at 1 μM in data set [1] came out at 8.5 h.
